Entries after “also recorded” stand apart in the source; their conditions may differ.
What was measured:
RAR = RAR dual fluorescent reporter (RARE-SV40-GFP / CMV-RFP) in HEK293 cells; format: cell-based, human
[1] = test system: retinal neurons (photoreceptors); experiment: TUNEL assay after intravitreal injection; format: in vivo, mouse; conditions: WT, 5-6 days after intravitreal injection, ATRA 100 nM
Description: Immunolabeling and TUNEL assay. S334ter rat retinas infected with the RARE double reporter were dissected, fixed and frozen, as previously described (54). The tissue was cut in 14 μm thick cross-sections using a Leica cryostat. Immunocytochemical solution (ICC) was composed of standard 1×PBS (Gibco), 2.5% BSA (Sigma) and 0.1% Triton (Sigma). The tissue was blocked using ICC solution supplemented with unconjugated rabbit anti-mouse secondary antibody (Life Technologies) at RT for 1 hr. Slides were incubated with primary mouse anti-GFP antibody (#JL8, Clontech), with no RFP cross-reactivity, at 4° C. ON. An Alexa Fluor-488 conjugated goat anti-mouse secondary antibody (Life Technologies) was used at RT for 1 hr in the dark. The same procedure was carried out for detection of RARβ in mouse retinas following injection of vehicle or ATRA. Slides were incubated with a primary rabbit anti-RARβ antibody (ab53161, Abcam) and detected using an Alexa Fluor-488 conjugated goat anti-rabbit secondary antibody (Life Technologies). TUNEL assay (In Situ Cell Death Detection Kit, Roche) was carried out per manufacturer's instructions. Retinas were collected 5-6 days following injection with vehicle, ATRA, or ATRA and Liarozole.
TUNEL assay. TUNEL assay (In Situ Cell Death Detection Kit, Roche) was carried out per manufacturer's instructions. […]

RGCs in WT retina = experiment: MEA recording of photoswitch (QAQ, BENAQ) photosensitization in WT retina; format: in vivo, mouse; conditions: WT retina, 3-7 days after intravitreal injection
Experimental: (§1) Intravitreal Injections. Before injection, mice were anesthetized with isoflurane (2%) and their pupils were dilated with tropicamide (1%) and phenylephrine (2.5%). Proparacaine (0.5%) was used as a topical analgesic. Genteal was applied under a glass coverslip to keep the cornea lubricated. An incision was made through the sclera below the ora serrata with a 30G needle and ˜1 μl of solution was injected into the vitreous with a blunt-ended 33G Hamilton syringe. After injection, the antibiotic tobramycin (0.3%) was applied to the eye. Final drug concentrations after intravitreal injection were: all-trans retinoic acid (ATRA, 100 nM), liarozole (100 μM), diethylaminobenzaldehyde (DEAB, 20 μM), citral (50 μM), BMS-493 (500 nM), and retinaldehyde (1 μM). The above values correspond to the final concentration in the eye after injecting 1 μl of drug accounting for a 5-fold dilution. An injection of PBS including 1% DMSO was used as vehicle control.
(§2) Multi Electrode Array Recordings. For extracellular recordings, a flat-mounted retina was placed ganglion cell layer down onto a 60-electrode Multi-Electrode Array (MEA 1060-2-BC, Multi-Channel Systems). After mounting the retina, photoswitches were applied for 30 min, followed by a 15 min wash. BENAQ was applied at a concentration of 100 μM and QAQ at 300 μM. A solution containing a mixture of neurotransmitter receptor blockers isolated RGCs from synaptic inputs: (in μM) 10 AP4, 40 DNQX, 30 AP5, 10 SR-95531, 50 TPMPA, 10 strychnine, and 50 tubocurarine. Extracellular spikes were high-pass filtered at 200 Hz and digitized at 20 kHz and were counted when exceeding 4 SD from the mean background voltage signal. Typically, each electrode recorded spikes from one to three individual RGCs. Principal component analysis of the spike waveforms was used for sorting spikes generated by individual cells (Offline Sorter, Plexon). Stimulation light was generated from a mercury arc lamp. Unfiltered broad spectrum light was used for BENAQ-treated retinas. Narrow band optical filters (Chroma) were used to deliver alternating intervals of 380 nm and 500 nm for stimulation of QAQ-treated as described previously (5,12). The Photoswitch Index (5) (PI) was established for individual retinas in light/darkness for treatment with BENAQ or in 380 nm/500 nm light for treatment with QAQ (11,12).
(§3) Injections. Intravitreal injections: Adult mice and rats were intravitreally injected with drugs or viruses. Before injection, animals were anesthetized with isoflurane (2%) and their pupils were dilated with tropicamide (1%) and phenylephrine (2.5%). Proparacaine (0.5%) was used as a topical analgesic. Genteal was applied under a glass coverslip to keep the cornea lubricated. An incision was made through the sclera below the ora serrata with a 30G needle. Solutions were injected into the vitreous with a blunt-ended 33G Hamilton syringe. After injection, the antibiotic tobramycin (0.3%) was applied to the eye. Final drug concentrations (after 5-fold dilution in the vitreous) were: 100 nM all-trans retinoic acid (ATRA), 100 μM liarozole (24), 20 μM diethylaminobenzaldehyde (DEAB) (28,93), 50 μM citral, 500 nM BMS 493 (85), 1 μM retinaldehyde, and vehicle comprising of 1× phosphate buffered saline (PBS) containing 1% dimethyl sulfoxide (DMSO). Intravitreal injections were performed using AAV2 serotype only. WT and rd1 mice were injected with the RAR-reporter virus or the RARDN virus, at age 1-1.5 month-old. WT and s334ter rats were injected with the RAR-reporter virus at age 3-4 month-old. Final volume of injections was 1-1.5 μL for mice and 5 μL for rats.
Multi Electrode Array Recordings. Flat-mounted retina was placed ganglion cell layer down onto a 60-electrode Multi-Electrode Array (MEA 1060-2-BC, Multi-Channel Systems). After mounting the retina was left to dark adapt for 20 minutes under constant perfusion with oxygenated saline at 34° C. 300 μM QAQ at was applied for 30 min, followed by a 5 min wash. […]

RGCs in rd1 retina [2] = experiment: MEA recording of photoswitch (QAQ, BENAQ) photosensitization in rd1 retina; format: in vivo, mouse
Experimental: as §1, §2
as §3, with “WT and s334ter rats were injected with the RAR-reporter virus at age 3-4 month-old. Final volume of injections was 1-1.5 μL for mice and 5 μL for rats.” left out

RGCs in rd1 retina [3] = experiment: MEA recording of RGC spontaneous activity in darkness, rd1 retina; format: in vivo, mouse
Experimental: as §1
Multi Electrode Array Recordings. For extracellular recordings, a flat-mounted retina was placed ganglion cell layer down onto a 60-electrode Multi-Electrode Array (MEA 1060-2-BC, Multi-Channel Systems). […] Extracellular spikes were high-pass filtered at 200 Hz and digitized at 20 kHz and were counted when exceeding 4 SD from the mean background voltage signal. Typically, each electrode recorded spikes from one to three individual RGCs. […]

| SMILES | GFP expression of the RAR reporter (RAR; HEK293, ATRA 1 μM, 48 hrs) | increase in GFP to RFP ratio (RAR; HEK293, different doses and times of ATRA, with 100 μM liarozole) | cell death / toxicity (TUNEL) [1] | QAQ photosensitization of WT retina, in words (RGCs in WT retina) | Photoswitch Index (PI) with QAQ (RGCs in WT retina; QAQ 300 μM, mean±SEM) | QAQ photosensitization of rd1 retina, in words (RGCs in rd1 retina [2]; rd1 mice injected intravitreally with BMS-493) | Photoswitch Index (PI) with BENAQ (RGCs in rd1 retina [2]; rd1 retina treated with BMS-493 (intravitreal, 3-7 days), BENAQ, white light/darkness, mean±SEM) | Photoswitch Index (PI) with QAQ (RGCs in rd1 retina [2]; rd1 retina treated with BMS-493 (intravitreal, 3-7 days), QAQ 300 μM, 380/500 nm, mean±SEM) | spontaneous firing of rd1 RGCs (mean Firing Rate) (RGCs in rd1 retina [3]; rd1, 3-7 days after a single intravitreal injection of BMS-493, control 5.13±0.74 Hz) [Hz] | spontaneous firing rates versus controls, in words (RGCs in rd1 retina [3]; rd1 retina, BMS-493 0.5 μM 3-7 days before, or AAV2-RARDN injected at P30, recorded at P90) |
| --- | --- | --- | --- | --- | --- | --- | --- | --- | --- | --- |
| CC1=C(/C=C/C(C)=C/C=C/C(C)=C/C(=O)O)C(C)(C)CCC1 [ATRA, all-trans retinoic acid] | significant increase in GFP expression only following ATRA treatment; also recorded: induced GFP expression | dose- and time-dependent | does not cause retinal neuron degeneration; also recorded: non-toxic; also recorded: no cell death | Neither ATRA nor liarozole alone enabled significant QAQ photosensitization | 0.1±0.05 | – | – | – | – | – |
| CC1(C)CC=C(C#Cc2ccccc2)c2cc(/C=C/c3ccc(C(=O)O)cc3)ccc21 [BMS-493] | – | – | – | – | – | prevented QAQ photosensitization | 0.35±0.05 | 0.15±0.06 | 2.67±0.33 | significantly lower |
